From patent US10501425B2, “Microbiocidal oxadiazole derivatives” (SYNGENTA PARTICIPATIONS AG, priority 2015, dated 2019)

Legend:
[1] = tested on: Puccinia recondita f. Sp. Tritici; test: Puccinia recondita f. sp. tritici / wheat / leaf disc curative (brown rust); type: in vivo; conditions: foliar, 24 h, 200 ppm in the applied formulation, wheat leaf segments cv. Kanzler, curative (applied 1 day after inoculation), compared to untreated, read-out: disease control
Description: (§1) Leaf disks or leaf segments of various plant species are cut from plants grown in a greenhouse. The cut leaf disks or segments are placed in multiwell plates (24-well format) onto water agar. The leaf disks are sprayed with a test solution before (preventative) or after (curative) inoculation. Compounds to be tested are prepared as DMSO solutions (max. 10 mg/ml) which are diluted to the appropriate concentration with 0.025% Tween20 just before spraying. The inoculated leaf disks or segments are incubated under defined conditions (temperature, relative humidity, light, etc.) according to the respective test system. A single evaluation of disease level is carried out 3 to 14 days after inoculation, depending on the pathosystem. Percent disease control relative to the untreated check leaf disks or segments is then calculated.
Wheat leaf segments cv. Kanzler are placed on agar in multiwell plates (24-well format). The leaf segments are then inoculated with a spore suspension of the fungus. Plates were stored in darkness at 19° C. and 75% relative humidity. The formulated test compound diluted in water was applied 1 day after inoculation. The leaf segments were incubated at 19° C. and 75% relative humidity under a light regime of 12 hours light/12 hours darkness in a climate cabinet and the activity of a compound was assessed as percent disease control compared to untreated when an appropriate level of disease damage appears in untreated check leaf segments (6 to 8 days after application).
The following compounds at 200 ppm in the applied formulation give at least 80% disease control in this test when compared to untreated control leaf disks under the same conditions, which show extensive disease development.

[2] = tested on: Glomerella lacenarium (Colletotrichum lagenarium); test: Glomerella lagenarium liquid culture / cucumber / preventative (anthracnose); type: cell-based; conditions: Colletotrichum orbiculare; 20 ppm in the applied formulation; liquid culture (PDB), growth inhibition measured photometrically 3 to 4 days after application; compared to untreated; read-out: disease control
Description: Mycelia fragments or conidia suspensions of a fungus prepared either freshly from liquid cultures of the fungus or from cryogenic storage, are directly mixed into nutrient broth. DMSO solutions of the test compound (max. 10 mg/ml) are diluted with 0.025% Tween20 by a factor of 50 and 10 μl of this solution is pipetted into a microtiter plate (96-well format). The nutrient broth containing the fungal spores/mycelia fragments is then added to give an end concentration of the tested compound. The test plates are incubated in the dark at 24° C. and 96% relative humidity. The inhibition of fungal growth is determined photometrically after 2 to 7 days, depending on the pathosystem, and percent antifungal activity relative to the untreated check is calculated.
Conidia of the fungus from cryogenic storage are directly mixed into nutrient broth (PDB—potato dextrose broth). After placing a (DMSO) solution of test compound into a microtiter plate (96-well format), the nutrient broth containing the fungal spores is added.
The following compounds at 20 ppm in the applied formulation give at least 80% disease control in this test when compared to untreated control under the same conditions, which show extensive disease development.

[3] = tested on: Puccinia recondita f. Sp. Tritici; test: Puccinia recondita f. sp. tritici / wheat / leaf disc preventative (brown rust); type: in vivo; conditions: foliar, 200 ppm in the applied formulation, wheat leaf segments cv. Kanzler, preventative (inoculated 1 day after application), compared to untreated, read-out: disease control
Description: as §1, with “calculated. Wheat leaf segments cv. Kanzler were placed on agar in multiwell plates (24-well format) and sprayed with the formulated test compound diluted in water. The leaf disks were inoculated with a spore suspension of the fungus 1 day after application. The inoculated leaf segments were incubated at 19° C. and 75% relative humidity (rh) under a light regime of 12 hours light/12 hours darkness in a climate cabinet and the activity of a compound was assessed as percent disease control compared to untreated when an appropriate level of disease damage appears in untreated check leaf segments (7 to 9 days after application). The following compounds at 200 ppm in the applied formulation give at least 80% disease control in this test when compared to untreated control leaf disks under the same conditions, which show extensive disease development.” for “calculated.”

N#CCC(=O)NCc1ccc(-c2noc(C(F)(F)F)n2)c(F)c1F [Compound 1.62, 2-cyano-N-[[2,3-difluoro-4-[5-(trifluoromethyl)-1,2,4-oxadiazol-3-yl]phenyl]methyl]acetamide]
≥ 80%: pest or weed control at 200 ppm [1] | inhibition of growth at 20 ppm [2] | pest or weed control at 200 ppm [3]

CC(C)C(=O)NCc1ccc(-c2noc(C(F)(F)F)n2)cn1 [Compound 1.66, 2-methyl-N-[[5-[5-(trifluoromethyl)-1,2,4-oxadiazol-3-yl]-2-pyridyl]methyl]propanamide]
≥ 80%: pest or weed control at 200 ppm [1] | inhibition of growth at 20 ppm [2] | pest or weed control at 200 ppm [3]

CCCC(=O)NCc1ccc(-c2noc(C(F)(F)F)n2)cn1 [Compound 1.67, N-[[5-[5-(trifluoromethyl)-1,2,4-oxadiazol-3-yl]-2-pyridyl]methyl]butanamide]
≥ 80%: pest or weed control at 200 ppm [1] | inhibition of growth at 20 ppm [2] | pest or weed control at 200 ppm [3]

COCC(=O)NCc1ccc(-c2noc(C(F)(F)F)n2)cn1 [Compound 1.69, 2-methoxy-N-[[5-[5-(trifluoromethyl)-1,2,4-oxadiazol-3-yl]-2-pyridyl]methyl]acetamide]
≥ 80%: pest or weed control at 200 ppm [1] | inhibition of growth at 20 ppm [2] | pest or weed control at 200 ppm [3]

CCC(C)C(=O)NCc1ccc(-c2noc(C(F)(F)F)n2)cn1 (stereo not drawn) [Compound 1.71, 2-methyl-N-[[5-[5-(trifluoromethyl)-1,2,4-oxadiazol-3-yl]-2-pyridyl]methyl]butanamide]
≥ 80%: pest or weed control at 200 ppm [1] | inhibition of growth at 20 ppm [2] | pest or weed control at 200 ppm [3]

COCCCC(=O)NCc1ccc(-c2noc(C(F)(F)F)n2)cn1 [Compound 1.72, 4-methoxy-N-[[5-[5-(trifluoromethyl)-1,2,4-oxadiazol-3-yl]-2-pyridyl]methyl]butanamide]
≥ 80%: pest or weed control at 200 ppm [1] | inhibition of growth at 20 ppm [2] | pest or weed control at 200 ppm [3]

O=C(CC(F)(F)F)NCc1ccc(-c2noc(C(F)(F)F)n2)cn1 [Compound 1.74, 3,3,3-trifluoro-N-[(5-[5-(trifluoromethyl)-1,2,4-oxadiazol-3-yl]-2-pyridyl]methyl]propanamide]
≥ 80%: pest or weed control at 200 ppm [1] | inhibition of growth at 20 ppm [2] | pest or weed control at 200 ppm [3]

CC(=O)NCc1ccc(-c2noc(C(F)(F)F)n2)cn1 [Compound 1.75, N-[[5-[5-(trifluoromethyl)-1,2,4-oxadiazol-3-yl]-2-pyridyl]methyl]acetamide]
≥ 80%: pest or weed control at 200 ppm [1] | inhibition of growth at 20 ppm [2] | pest or weed control at 200 ppm [3]

COCCC(=O)NCc1ccc(-c2noc(C(F)(F)F)n2)c(F)c1 [Compound 1.79, N-[[3-fluoro-4-[5-(trifluoromethyl)-1,2,4-oxadiazol-3-yl]phenyl]methyl]-3-methoxy-propanamide]
≥ 80%: pest or weed control at 200 ppm [1] | inhibition of growth at 20 ppm [2] | pest or weed control at 200 ppm [3]

CC(C)(C)COC(=O)NCc1ccc(-c2noc(C(F)(F)F)n2)cc1 [Compound 2.18, 2,2-dimethylpropyl N-[[4-[5-(trifluoromethyl)-1,2,4-oxadiazol-3-yl]phenyl]methyl]carbamate]
≥ 80%: pest or weed control at 200 ppm [1] | inhibition of growth at 20 ppm [2] | pest or weed control at 200 ppm [3]

CCCOC(=O)NCc1ccc(-c2noc(C(F)(F)F)n2)cn1 [Compound 2.20, propyl N-[[5-[5-(trifluoromethyl)-1,2,4-oxadiazol-3-yl]-2-pyridyl]methyl]carbamate]
≥ 80%: pest or weed control at 200 ppm [1] | inhibition of growth at 20 ppm [2] | pest or weed control at 200 ppm [3]

CC#CCOC(=O)NCc1ccc(-c2noc(C(F)(F)F)n2)cn1 [Compound 2.21, but-2-ynyl N-[[5-[5-(trifluoromethyl)-1,2,4-oxadiazol-3-yl]-2-pyridyl]methyl]carbamate]
≥ 80%: pest or weed control at 200 ppm [1] | inhibition of growth at 20 ppm [2] | pest or weed control at 200 ppm [3]

CC(C)COC(=O)NCc1ccc(-c2noc(C(F)(F)F)n2)cn1 [Compound 2.22, isobutyl N-[[5-[5-(trifluoromethyl)-1,2,4-oxadiazol-3-yl]-2-pyridyl]methyl]carbamate]
≥ 80%: pest or weed control at 200 ppm [1] | inhibition of growth at 20 ppm [2] | pest or weed control at 200 ppm [3]

COCCOC(=O)NCc1ccc(-c2noc(C(F)(F)F)n2)cn1 [Compound 2.24, 2-methoxyethyl N-[[5-[5-(trifluoromethyl)-1,2,4-oxadiazol-3-yl]-2-pyridyl]methyl]carbamate]
≥ 80%: pest or weed control at 200 ppm [1] | inhibition of growth at 20 ppm [2] | pest or weed control at 200 ppm [3]

C=CCOC(=O)NCc1ccc(-c2noc(C(F)(F)F)n2)cn1 [Compound 2.25, allyl N-[[5-[5-(trifluoromethyl)-1,2,4-oxadiazol-3-yl]-2-pyridyl]methyl]carbamate]
≥ 80%: pest or weed control at 200 ppm [1] | inhibition of growth at 20 ppm [2] | pest or weed control at 200 ppm [3]

CCCCOC(=O)NCc1ccc(-c2noc(C(F)(F)F)n2)cn1 [Compound 2.26, butyl N-[[5-[5-(trifluoromethyl)-1,2,4-oxadiazol-3-yl]-2-pyridyl]methyl]carbamate]
≥ 80%: pest or weed control at 200 ppm [1] | inhibition of growth at 20 ppm [2] | pest or weed control at 200 ppm [3]

O=C(NCc1ccc(-c2noc(C(F)(F)F)n2)cn1)OCCCCCl [Compound 2.28, 4-chlorobutyl N-[[5-[5-(trifluoromethyl)-1,2,4-oxadiazol-3-yl]-2-pyridyl]methyl]carbamate]
≥ 80%: pest or weed control at 200 ppm [1] | inhibition of growth at 20 ppm [2] | pest or weed control at 200 ppm [3]

CC(C)OC(=O)NCc1ccc(-c2noc(C(F)(F)F)n2)cn1 [Compound 2.29, isopropyl N-[[5-[5-(trifluoromethyl)-1,2,4-oxadiazol-3-yl]-2-pyridyl]methyl]carbamate]
≥ 80%: pest or weed control at 200 ppm [1] | inhibition of growth at 20 ppm [2] | pest or weed control at 200 ppm [3]

O=C(NCc1ccc(-c2noc(C(F)(F)F)n2)cn1)OCCF [Compound 2.30, 2-fluoroethyl N-[[5-[5-(trifluoromethyl)-1,2,4-oxadiazol-3-yl]-2-pyridyl]methyl]carbamate]
≥ 80%: pest or weed control at 200 ppm [1] | inhibition of growth at 20 ppm [2] | pest or weed control at 200 ppm [3]
